# Reference: patent US7314858B2, “Retrocyclins: antiviral and antimicrobial peptides” (priority 2001, dated 2008)
# “Also recorded” adds a separate entry of the source. Where a SMILES comes first, the peptide text is derived from it. Bridges are numbered along the chain shown (N, C = ends).
# How the values were obtained:
# [1] = test system: HIV-1 strain IIIB; assay: HIV-1 IIIB infection of H9 cells, p24 antigen ELISA; format: cell-based
# Protocol: FIG. 1. Circular minidefensins reduce HIV-1 infection of H9 cells. HIV-I strain IIIB (MOI=10^−2) was incubated with 2.5×10^5 H9 cells in the presence or absence of 20 μg/ml RTD-1, RTD-2 or RTD-3. p24 antigen release was monitored by ELISA on days 3, 6, and 9. Assay sensitivity=10 pg/ml.
# Immortalized CD4^+ H9 cells, which are permissive for infection with this strain, were maintained in RPMI supplemented with 10% heat-inactivated fetal calf serum (FCS), 10 mM HEPES, 2 mM glutamine, 100 U of penicillin/ml, and 10 μg of streptomycin/ml (R10 media). Cells (2.5×10^5/100 μl) were incubated with virus (multiplicity of infection (MOI)=10^−2) in the presence or absence of 20 μg/ml RTD-1, RTD-2 or RTD-3 for 3 hrs at 37° C./5% CO2. The cells were washed in R10 media, seeded in 48-well tissue culture plates in 1 ml R10 media, and incubated at 37° C./5% CO2 for 9 days. Aliquots of cell supernatant were removed at the specified time points and analyzed by a sensitive ELISA (DuPont NEN) that quantitates p24 antigen of HIV-1. The three circular rhesus minidefensins were similarly active, inhibiting HIV-1 by 100-1000 fold by 9 days post-inoculation (note the logarithmic scale).
# Either HIV-1-permissive H9 cells were used as targets, or primary CD4^+ lymphocytes from HIV-1-seronegative donors generated from freshly purified peripheral blood mononuclear cells (PBMC) stimulated with a CD3-CD8 bispecific monoclonal antibody. After approximately 7 days, when 98% of these cells co-expressed CD3 and CD4, they were infected with HIV-1 with or without retrocyclin or other test peptide. These cells were maintained in RPMI containing 10% FCS supplemented with 2 mM glutamine, 100 U of penicillin/ml, 10 μg of streptomycin/ml, and 50 U of interleukin 2/ml (R10-50 media).
# Mature retrocyclin was prepared by a three-step process.
# [2] = test system: L. monocytogenes EGD; assay: Two-stage radial diffusion assay; format: cell-based, Listeria monocytogenes
# Protocol: FIG. 4. Effect of salt on antibacterial activity of circular minidefensins. Human retrocyclin and monkey RTD-1 were tested against our standard lab stains: E. coli ML-35p, P. aeruginosa MR 3007, L. monocytogenes EGD, and S. aureus 930918. The bars show MIC values±SEM values that resulted from 3-6 radial diffusion assays per organism and assay condition.
# The effects of NaCl on the antimicrobial activity of retrocyclin and RTD-1, from two-stage radial diffusion assays, are compared in FIG. 4.
# [3] = test system: HIV-IIIB; assay: Direct inactivation of HIV-1 virions (preincubation with virus, dilution, infection of H9 cells); format: cell-based; conditions: 200 μg/ml, 30 min, then diluted 190-fold
# Protocol: FIG. 12. […] Retrocyclin (2-200 μg/ml) was incubated with HIV-IIIB (MOI=10^−2) diluted in R10 media prior to infecting H9 cells. p24 antigen release was measured by ELISA. Limit of detection=10 pg/ml.
# To determine if retrocyclin directly inactivated HIV-1 virions, HIV-IIIB (MOI 10^−2) was incubated with 2 μg/ml, 20 μg/ml, or 200 μg/ml retrocyclin for 30 min at room temperature in R10 media. […] Viral replication was measured by collecting supernatant for 9 days at 3 day intervals to quantify HIV-1 p24 antigen by ELISA (FIG. 12). […] In this respect, the actions of retrocyclin are different from the direct inactivation of herpes simplex virus previously observed with human and rabbit α-defensins.
# [4] = Preliminary surface plasmon resonance, sphingolipid binding; conditions: preliminary SPR
structure (smiles),measurement,setting,value
"CC[C@H](C)[C@@H]1NC(=O)CNC(=O)[C@H](CCCNC(=N)N)NC(=O)CNC(=O)[C@@H]2CSSC[C@H](NC1=O)C(=O)N[C@@H](CCCNC(=N)N)C(=O)N[C@H]1CSSC[C@H](NC(=O)[C@H](CCCNC(=N)N)NC(=O)[C@@H]3CSSC[C@H](NC(=O)[C@H]([C@@H](C)CC)NC1=O)C(=O)NCC(=O)N[C@@H](CCCNC(=N)N)C(=O)NCC(=O)N[C@@H]([C@@H](C)CC)C(=O)N3)C(=O)N[C@@H]([C@@H](C)CC)C(=O)N2 [RC-100, Retrocyclin] (cyclo(GICRCICGRGICRCICGR); disulfide 3-16, 5-14, 7-12)",concentration required for complete protection against HIV-1 infection,[1],10 µg/mL
same,inhibition of HIV-1 replication (p24),"[1]; H9 cells, IIIB (X4), peptide 10-20 μg/ml",complete suppression; also recorded: antiviral
same,antiviral activity,"[1]; at <2 μg/ml, n=5",no significant antiviral activity
same,effect of salt on antimicrobial activity,[2]; hypersalinity (175 mM NaCl),only modestly inhibitory
same,antimicrobial activity,[2]; physiological (100 mM) NaCl,strong activity
same,HIV titer after incubation of virus with peptide,[3],not reduced
same,binding to sphingolipids (galactosylceramide),[4],binds with high affinity
